Values of other authors in patent publication US20070036851A1, “Acid labile drug compositions” (priority 2002, published 2007).

Details: in vitro, water, pH of about 6; colour changes from clear to yellow, then brown, then purple

- stability at acidic pH (drug degradation): quickly cyclizes
SMILES: COc1ccc2[nH]c([S+]([O-])Cc3ncc(C)c(OC)c3C)nc2c1 (stereo not shown) [omeprazole]
